Reference: patent US4845123A, “Reduction in vivo of the inappropriate levels of endogenous and environmental-derived compounds by sustained-release inhibitors of β- g” (priority 1985, dated 1989)

Columns and labels:
Morris Hepatoma 7777 = experiment: growth of transplanted Morris Hepatoma 7777; assay type: in vivo, rat; conditions: 2% CGT diet from one week before transplant, male Buffalo rats
Method: One group of male Buffalo rats was put on 2% CGT diet one week before the hepatoma transplant, while the other group of rats (controls) was kept on the regular chow diet. A minimum number of Morris Hepatoma 7777 cells consistent with tumor growth were innoculated subcutaneously in the left flank of all rats. Tumor diameters were measured at least twice weekly, and tumor volume was calculated.

[1] = test system: DMBA-induced mammary tumors; experiment: DMBA-induced mammary tumorigenesis, initiation, promotion and tumor regression; assay type: in vivo, rat
Method: Fifty day old female Sprague Dawley rats were utilized in these experiments. For induction of mammary tumors the rats received a single dose of 130 mg/kg of DMBA in sesame oil by gavage. Animals pretreated with CGT received 4.5 mmoles/kg of CGT in sesame oil at 3 hours and again at 0.5 hours before administration of the carcinogen. This protocol tests the inhibitory effect of CGT on the initiation phase. Alternatively, the rats were fed a standard chow diet supplemented with 10% CGT (w/w). To evaluate the effect of CGT on the promotion phase the rats were changed from the chow diet to the CGT supplemented diet two weeks after treatment with DMBA. One mole of glucarate is converted to approximately one-third of a mole of GL in an equilibrated aqueous solution.
The mammary tumors were measured with micrometer calipers. Two measurements were taken, the longest dimension and dimension at right angles to this parameter.
At this time, the rats were transferred from a chow diet to a chow diet supplemented with 10% CGT. This diet was continued until the termination of the experiment. […] Three groups each, with eighteen 50 day old rats, were given intragastrically a single dose of 20 mg of DMBA in 1.0 ml of sesame oil. One group ( -- ) received 4.5 mmoles/kg of CGT by stomach tube at 3 hours and again at 0.5 hours before DMBA. A second (control) group (.circle.O--O.circle.) received vehicle (i.e. sesame oil) only at the same two time periods. Both of these groups were then put on regular chow diet.

bladder tumors = conditions: Boyland et al. 1964 (GL); Katayama 1972 (DAGDL); cited from earlier work
Organ DNA = experiment: in vivo covalent binding of [14C]BP to organ DNA; parameters: species or system rat; conditions: for Covalent Binding Index (of BP), +DAGDL: DAGDL 1.5 mmol/kg 0.5 hours before [14C]BP; for inhibition at 1500 µmol/kg: Rattus norvegicus, DAGDL 1.5 mmol/kg
Method: Experimental rats were pretreated 0.5 hours earlier with one dose of 1.5 mmol/kg body weight of DAGDL which was administered by stomach tube as a suspension in 1.0 ml of sesame oil, while control rats received the vehicle only. The experimental and control group contained 2 rats each. Heart, kidney, liver, lung and mammary gland were removed under ether anesthesia 48 hours post-administration of BP. The DNA was isolated immediately and purified by chloroform phenol extraction of organ homogenates. In the case of mammary gland, the homogenate was treated with collagenase II. Following purification with ribonuclease A and protease K, the DNA concentration was estimated by U.V. absorption and the bound radioactivity was determined by radioassay in liquid scintillant.
In this experiment 50 day old female rats of the Sprague Dawley strain received 1.5 mmol/kg of DAGDL 0.5 hours before the intraperitoneal injection of 7.9 μmol/kg of [^14 C]BP. The DNA was extracted from the tissues and radioassayed by established procedures.

[2] = test system: diabetes, rheumatoid arthritis, toxemia in pregnancy and bladder cancer; conditions: review of the medical literature; cited from earlier work
[3] = test system: MNU-induced mammary tumors; experiment: MNU-induced mammary carcinogenesis; assay type: in vivo, rat; conditions: MNU 40 mg/kg i.v., DAGDL 2 dose schedule; FIG. 10
Method: In this experiment, MNU (40 mg/kg) was administered to 50 day old Sprague Dawley female rats by i.v. injection. One half of the rats were co-administered DAGDL according to a 2 dose schedule.

For `O=C([O-])[C@@H](O)[C@@H](O)[C@H](O)[C@@H](O)C(=O)[O-].[Ca+2]` [CGT, calcium D-glucarate], the “tumor growth compared with control group” value (Morris Hepatoma 7777) was “slightly slower”, the “effect on DMBA-induced tumors which escape the anti-promoter effects” value ([1]; 10% CGT diet) was “significant regression” and the “reduction of the overall tumor incidence due to tumor regression” value ([1]; 10% CGT diet) was 14%. The “effect on promotion phase of DMBA-induced mammary carcinogenesis” value ([1]; 10% CGT diet from 2 weeks post-DMBA) was “significantly inhibits the promotion phase”, the “tumor induction as percent of that in the controls” value ([1]; 10% CGT diet from 2 weeks post-DMBA (promotion phase), by 28 weeks) was 30% and the “Average Tumor Volume” value ([1]; 10% CGT diet, 16 wks (spread ± 0.57 on separate line)) was 2.82 cm^3. The “Average Tumor Volume” value ([1]; 10% CGT diet, 20 wks (spread ± 0.76 on separate line)) was 2.17 cm^3, the “Average Tumor Volume” value ([1]; 10% CGT diet, 24 wks (spread ± 0.87 on separate line)) was 1.87 cm^3 and the “Average Tumor Volume” value ([1]; 10% CGT diet, 28 wks) was 1.20 ± 0.82 cm^3. The “Average Tumor Volume” value ([1]; 10% CGT diet, 32 wks) was 1.02 ± 0.77 cm^3, the “reduction in percentage of rats with tumors” value ([1]; 10% CGT diet, average, between 18 and 28 days (so in the source)) was 70% and the overall tumor incidence ([1]; 10% CGT supplemented diet beginning 2 weeks post-DMBA treatment) was 33%. For the same molecule, the “tumors per rat in rats with tumors” value ([1]; CGT diet supplemented group, essentially all rats with tumors) was “only one tumor per rat”.

In the case of `CC(=O)O[C@@H]1C(=O)O[C@H]2[C@@H]1OC(=O)[C@@H]2OC(C)=O` [DAGDL, 2,5-di-O-acetyl-D-glucaro-1,4;6,3-dilactone], the “clinical effect in prevention of bladder tumors” value (bladder tumors) is listed as “only a slight beneficial effect”, the “Covalent Binding Index (of BP), +DAGDL” value (Organ DNA; Heart) is listed as 10 and the “Covalent Binding Index (of BP), +DAGDL” value (Organ DNA; Kidney) is listed as 12. For the same molecule, the “Covalent Binding Index (of BP), +DAGDL” value (Organ DNA; Liver) was 9, the “Covalent Binding Index (of BP), +DAGDL” value (Organ DNA; Lung) was 8 and the “Covalent Binding Index (of BP), +DAGDL” value (Organ DNA; Mammary gland) was 20. It also gave an inhibition at 1500 µmol/kg (Organ DNA; Heart) of 44%, an inhibition at 1500 µmol/kg (Organ DNA; Kidney) of 69% and an inhibition at 1500 µmol/kg (Organ DNA; Liver) of 63%. For the same molecule, the inhibition at 1500 µmol/kg (Organ DNA; Lung) was 72%, the inhibition at 1500 µmol/kg (Organ DNA; Mammary gland) was 47% and the “treatment of existing diseases” value [2] was “unsuccessful”. For the same molecule, the “inhibition of mammary tumor development” value [3] was “approx. 4 fold”.
